# Reference: publication PMC8769072, “Proteome‐scale mapping of binding sites in the unstructured regions of the human proteome” (Molecular Systems Biology, 2022)
# Test system: immobilized GST-tagged bait protein domains
# Assay: ProP-PD phage selections (HD2 P8, sublibraries, HD2 P3, HD1 P8) with NGS and confidence level
# Assay type: binding, human
# Conditions: for HD2_endomembrane confidence: HD2 P8 endomembrane sublibrary
# [1] = HD2 library, bait SUMO1_SUMO__P63165_1_101, known motif instance of the benchmarking set found (TRUE) or not found (FALSE) among selected peptides
# [2] = bait OXSR1___O95747_434_527, HD2 library, whether the validated benchmark motif instance was recovered in the ProP-PD selection (TRUE/FALSE)
# [3] = bait CRK_SH3_1_P46108_124_198, library HD2, benchmarking set of validated motif instances, TRUE = motif instance recovered in the ProP-PD selection
# [4] = bait MAP1LC3A_ATG8__Q9H492_2_121, confidence level (4 = High, 2-3 = Medium, 1 = Low)
# [5] = bait MAP1LC3A_ATG8 (Q9H492 2-121), HD2 library, benchmark motif instance recovered in the ProP-PD selection (TRUE/FALSE)
# [6] = bait MAP1LC3A_ATG8 (Q9H492 2-121), HD2 library, confidence level (1-4) of best matching peptide
# [7] = bait MAP1LC3A_ATG8 (Q9H492 2-121), HD2 library, specificity score of best matching peptide
substance,measurement,setting,value
VEVIDLTIESSSDEED,best_confidence,"bait SUMO1_SUMO__P63165_1_101, HD2 library, confidence level (1-4) of best matching selected peptide",4
same,best_specificity,"bait SUMO1_SUMO__P63165_1_101, HD2 library, specificity score of best matching selected peptide",1
same,motif_found,"bait SUMO1_SUMO__P63165_1_101, HD2 library, whether the validated benchmark motif instance was recovered in the ProP-PD selection (TRUE/FALSE)",TRUE
VFPRPVLPSLTVSRVI,HD2 confidence,"bait ANKRA2_Ank__Q9H9E1_142_313, library HD2 P8",4
same,HD2_nc confidence,"bait ANKRA2_Ank__Q9H9E1_142_313, library HD2 P8 nucleocytoplasmic",3
same,HD2_nc count proportions,"bait ANKRA2_Ank__Q9H9E1_142_313, library HD2 P8 nucleocytoplasmic, mean normalised NGS counts",0.003084
same,HD2_nc mean counts,"bait ANKRA2_Ank__Q9H9E1_142_313, library HD2 P8 nucleocytoplasmic, mean raw NGS counts, all selections",216.6
VGDTSRGQVIIISDSDDDDDERILSLEK,motif_found,[1],FALSE
VGRFQVTSSKEPAEPL,best_confidence,"bait OXSR1___O95747_434_527, HD2 library, confidence level (1-4) of best matching selected peptide",4
same,best_specificity,"bait OXSR1___O95747_434_527, HD2 library, specificity score of best matching selected peptide",1
same,motif_found,[2],TRUE
VGSQADTNVIDLTGDDKDDL,motif_found,[1],FALSE
VIGSADCNVIEIDDTLDDSDED,motif_found,[1],FALSE
VLGDQRRPSLPALHFIKGAGKK,motif_found,"library HD2, bait ANKRA2_Ank__Q9H9E1_142_313, motif instance NOT in library (in_library_check FALSE, in_library_coverage 0)",FALSE
VMSLPKLQQVPGLHPQ,HD confidence,"bait ANKRA2_Ank__Q9H9E1_142_313, library HD",3
same,HD count proportions,"bait ANKRA2_Ank__Q9H9E1_142_313, library HD, mean normalised NGS counts",0.003008
same,HD mean counts,"bait ANKRA2_Ank__Q9H9E1_142_313, library HD, mean raw NGS counts, all selections",34.0
VPNVHAAEFVPSFLRG,best_confidence,"bait PABP-B_PABP__P11940_544_623, HD2 library, confidence level (1-4) of best matching selected peptide",4
same,best_specificity,"bait PABP-B_PABP__P11940_544_623, HD2 library, specificity score of best matching selected peptide",1
same,motif_found,"bait PABP-B_PABP__P11940_544_623, HD2 library, whether the validated benchmark motif instance was recovered in the ProP-PD selection (TRUE/FALSE)",TRUE
VPSPASLWPPPPSPAPSST,motif_found,"library HD2, bait VASP_EVH1__P50552_1_114, validated benchmark motif instance, in_library_check TRUE, TRUE/FALSE = instance recovered in ProP-PD selection",FALSE
VPTLPPKQQFLPSSPG,HD2_nc confidence,"bait CRK_SH3_1_P46108_124_198, HD2 P8 nucleocytoplasmic sublibrary, confidence level (4 = High, 2-3 = Medium, 1 = Low)",4
same,HD2_nc mean counts,"bait CRK_SH3_1_P46108_124_198, HD2 P8 nucleocytoplasmic sublibrary, mean NGS counts over replicate selections",1917.0
same,HD2_nc count proportions,"bait CRK_SH3_1_P46108_124_198, HD2 P8 nucleocytoplasmic sublibrary, mean proportion of NGS counts",0.01185
VQPKQDAFANFANFSK,HD confidence,"bait AP2B1_adaptin__P63010_700_937, library HD",2
same,HD count proportions,"bait AP2B1_adaptin__P63010_700_937, library HD, mean normalised NGS counts",0.0004926
same,HD mean counts,"bait AP2B1_adaptin__P63010_700_937, library HD, mean raw NGS counts, all selections",1.25
VSGSHCTPPPPYHADP,best_confidence,"library HD2, bait YAP1_WW_1_P46937_169_207, confidence level of best matching selected peptide (4 High, 2-3 Medium, 1 Low)",4
same,best_specificity,"library HD2, bait YAP1_WW_1_P46937_169_207, specificity score of best matching selected peptide",0.99
same,motif_found,"library HD2, bait YAP1_WW_1_P46937_169_207, validated benchmark motif instance, in_library_check TRUE, TRUE/FALSE = instance recovered in ProP-PD selection",TRUE
VSPSTSY,motif_found,"library HD2, bait USP7_MATH-TRAF__Q93009_53_206, validated benchmark motif instance, in_library_check TRUE, TRUE/FALSE = instance recovered in ProP-PD selection",FALSE
VSSAAPSPRGCADGRDADPTEE,motif_found,"HD2 library, bait TNKS_TANK-peptide-bind__O95271_174_649, known motif instance of the benchmarking set found (TRUE) or not found (FALSE) among selected peptides",FALSE
VSVDSIPLEWDHTGDVGGSSSHE,motif_found,"library HD2, bait KLC1_TPR__Q07866_203_497, whether the validated benchmark motif instance was recovered in the ProP-PD selection (TRUE/FALSE)",FALSE
VVDNSPPPALPPKKRQSAPS [RAPGEF1],motif_found,[3],FALSE
VVHSAGRRFIVSPVPESRL,motif_found,[2],FALSE
WADFSSTWPTSTNEKP,HD2_endomembrane confidence,"bait AP2B1_adaptin__P63010_700_937, confidence level (4 = High, 2-3 = Medium, 1 = Low)",4
WAKFSNDNIKHSQNMR,HD confidence,"bait AP2B1_adaptin__P63010_700_937, HD1 P8 library, confidence level (4 = High, 2-3 = Medium, 1 = Low)",4
same,HD mean counts,"bait AP2B1_adaptin__P63010_700_937, HD1 P8 library, mean NGS counts over replicate selections",1.5
same,HD count proportions,"bait AP2B1_adaptin__P63010_700_937, HD1 P8 library, mean proportion of NGS counts",0.0005262
WEALNDSVKTSMHWVV,HD2-1mM_CaCl confidence,"bait CALM1 EF-hand (P0DP23, 2-149), HD2 library selection with 1mM_CaCl, confidence level (4 = High, 2 or 3 = Medium, 1 = Low)",2
same,HD2 confidence,"bait CALM1 EF-hand (P0DP23, 2-149), HD2 library selection, confidence level (4 = High, 2 or 3 = Medium, 1 = Low)",3
WEMVPRHSSWGDVGVG,HD2_endomembrane confidence,[4],4
WNERQPAPALPPKPPKPTTV [PIK3R1],motif_found,[3],TRUE
WQPFPDDHSACLRPGS,HD2 confidence,"bait AP2B1_adaptin__P63010_700_937, HD2 P8 selection, non primary paralogue peptide match, confidence level -4 to 4: 4 = High, 3 or 2 = Medium, 1 = Low, 0 = Filtered/Noise",3
WRVLGLCLLSVGVWGQ,HD2_cytoplasm confidence,"bait CALM1_EF-hand__P0DP23_2_149, HD2 P8 cytoplasm sublibrary, confidence level (4 = High, 2-3 = Medium, 1 = Low)",3
WTHLSSKEVDPSTGEL,motif_found,[5],TRUE
same,best_confidence,[6],4
same,best_specificity,[7],1
same,motif_found,"bait MAP1LC3B_ATG8 (Q9GZQ8 2-119), HD2 library, benchmark motif instance recovered in the ProP-PD selection (TRUE/FALSE)",TRUE
same,best_confidence,"bait MAP1LC3B_ATG8 (Q9GZQ8 2-119), HD2 library, confidence level (1-4) of best matching peptide",3
same,best_specificity,"bait MAP1LC3B_ATG8 (Q9GZQ8 2-119), HD2 library, specificity score of best matching peptide",1
WTMVDENFSTLSLTQS,HD2_endomembrane confidence,[4],4
WVELPMNSSNGNDNGN,motif_found,[5],TRUE
same,best_confidence,[6],2
same,best_specificity,[7],1
YAKKVGYTPDWIFLLRNVMRI [CLTC 511-517],motif_found,"HD2 library, bait MAP1LC3A_ATG8__Q9H492_2_121, benchmark motif instance, in_library_check FALSE, in_library_coverage 0",FALSE
same,motif_found,"HD2 library, bait MAP1LC3B_ATG8__Q9GZQ8_2_119, benchmark motif instance, in_library_check FALSE, in_library_coverage 0",FALSE
YDREFLLDFQFMPACI,best_specificity,"library HD2, bait EIF4E_eIF4E__P06730_1_217, best matching peptide",1
same,best_confidence,"library HD2, bait EIF4E_eIF4E__P06730_1_217, confidence level of best matching peptide (4 High, 2-3 Medium, 1 Low)",2
same,motif_found,"library HD2, bait EIF4E_eIF4E__P06730_1_217, whether the validated benchmark motif instance was recovered in the ProP-PD selection (TRUE/FALSE)",TRUE
YRLARQRIIQFQARCRAYLVRKAFRHRLWAV [MYO7A 817-833],motif_found,"HD2 library, bait CALM1_EF-hand__P0DP23_2_149, benchmark motif instance, in_library_check FALSE, in_library_coverage 0",FALSE
YSFFSPSPARKRHAPSPEPAV,motif_found,"bait KPNA4_Arm (O00629 68-487), HD2 library, benchmark motif instance recovered in the ProP-PD selection (TRUE/FALSE)",FALSE
YTSPSLPNISLGLQAT,best_specificity,"bait ANKRA2_Ank__Q9H9E1_142_313, library HD2, best matching peptide",1
same,best_confidence,"bait ANKRA2_Ank__Q9H9E1_142_313, library HD2, confidence level of best matching peptide (4 = High, 2 or 3 = Medium, 1 = Low)",4
